Source: US20170015654A1, “PYRIDAZINE COMPOUND” (TAKEDA PHARMACEUTICAL COMPANY LIMITED, priority 2014, published 2017)

Legend:
[1] = system: HCT116 cells; assay: Measurement of growth inhibitory activity using HCT116 cell; assay type: cell-based; settings: Homo sapiens, HCT-116, 72 h, 1 μM compound, 3 days, CellTiter-Glo, read-out: Rate of inhibition of cell growth at compound concentration of 1 μM
Method: Measurement of Growth Inhibitory Activity Using HCT116 Cell
Each compound was evaluated for its growth inhibitory activity against HCT116 cells (ATCC) by the following method: the HCT116 cells were inoculated at 900 cells/40 μL/well to a 384-well white plate (Greiner Bio-one) and maintained in an assay medium (RPMI medium (Wako Pure Chemical Industries, Ltd.) containing 2% fetal bovine serum, 50 units/mL penicillin and 50 μg/mL streptomycin (Invitrogen Corp.)). On the next day, the test compound dissolved in dimethyl sulfoxide (DMSO) was dispensed to the plate using TECAN D300 digital dispenser (Tecan Trading AG). Then, the concentration of DMSO in the medium was adjusted to 0.1% by the addition of DMSO. The HCT116 cells supplemented with the compound were incubated at 37° C. in a 5% CO2 environment (test compound addition group).
Also, the same reaction as above was carried out without the addition of the test compound (test compound non-addition group).
Further, the same reaction as above was carried out on condition that neither the HCT116 cells nor the test compound were added (control group).
After 3 days, 20 μL of CellTiter-Glo reagent (Promega Corp.) was added to each well, and the mixture was stirred for 10 minutes. Then, the light emission of each well was measured using ARVO MX1420 (PerkinElmer, Inc.).
The rate of inhibition of HCT116 cell growth (%) was determined according to the following calculation expression:
Rate of inhibition of cell growth=(1−(Light emission of the test compound addition group−Light emission of the control group)/(Light emission of the test compound non-addition group−Light emission of the control group))×100

[2] = target: T1, human SCD1 (Homo sapiens, UniProt O00767); assay: Measurement of human SCD1 binding activity (inhibition of binding of radiolabeled compound Z); settings: human SCD1-expressing membrane fraction, compound Z radioligand; for inhibition at 1 µM: 1 μM compound, read-out: Rate of inhibition of SCD1 binding (%) at compound concentration of 1 μM
T1 construct: made in house; host or cells: High Five insect cells (baculovirus, pFastBac1/hSCD1); membrane fraction
T1 sequence (O00767 1-359): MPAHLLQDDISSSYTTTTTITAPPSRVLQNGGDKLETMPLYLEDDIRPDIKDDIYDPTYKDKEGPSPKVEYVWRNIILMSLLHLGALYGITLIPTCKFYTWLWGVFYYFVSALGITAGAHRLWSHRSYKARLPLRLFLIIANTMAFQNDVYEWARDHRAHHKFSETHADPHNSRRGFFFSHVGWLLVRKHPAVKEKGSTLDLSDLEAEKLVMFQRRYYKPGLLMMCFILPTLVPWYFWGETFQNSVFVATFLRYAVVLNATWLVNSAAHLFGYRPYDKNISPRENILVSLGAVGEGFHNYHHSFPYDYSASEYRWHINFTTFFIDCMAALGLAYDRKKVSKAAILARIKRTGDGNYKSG
Method: Measurement of Human SCD1 Binding Activity Using (5-(6-(1′H-spiro[1-benzofuran-3,3′-pyrrolidin]-1′-yl)pyridazin-3-yl)-1,2,4-oxadiazol-3-yl) [^3H2]methanol
The SCD1 binding activity of the compound of the present invention was measured as the activity of inhibiting the binding of (5-(6-(1′H-spiro[1-benzofuran-3,3′-pyrrolidin]-1′-yl)pyridazin-3-yl)-1,2,4-oxadiazol-3-yl)[^3H2]methanol (radiolabeled form of the compound disclosed as a SCD inhibitor in Example 157 of International Publication No. WO2008/096746; in the present specification, also referred to as compound Z) to SCD1.
Specifically, first, Human liver cDNA library (Takara Bio Inc.) was cloned as a template by PCR using KOD-Plus-(Toyobo Co., Ltd.) DNA polymerase. The primers used were 5′-[…]-3′ and 5′-[…]-3′. The amplification fragment was temporarily transferred to a pCR Blunt II-TOPO vector using Zero Blunt PCR Cloning Kit (Life Technologies, Inc.) to obtain pCR Blunt II-TOPO/hSCD1. A fragment obtained by the cleavage of this pCR Blunt II-TOPO/hSCD1 with BamHI and NotI was transferred to pFastBac1 (Life Technologies, Inc.) to construct a recombinant plasmid pFastBac1/hSCD1 for hSCD1 insect cell expression systems.
Baculovirus was prepared using the pFastBac1/hSCD1 plasmid according to the protocol of Bac-to-Bac Baculovirus Expression System (Life Technologies, Inc.).
The insect cells for use in expression were High Five cells (Life Technologies, Inc.) subcultured in a PSFM-J1 medium (Wako Pure Chemical Industries, Ltd.) containing 5% FBS, 10 U/L heparin (Sigma-Aldrich Corp.) and 50 μg/mL gentamicin.
The High Five cells were inoculated at 0.8×10^6 cells/mL and cultured until the following day. When the cell density reached 2.0×10^6 cells/mL, Ammonium Iron(III) Sulfate 12-Water (Wako Pure Chemical Industries, Ltd.) was added thereto at a final concentration of 10 μM. The cells were further infected with the baculovirus and cultured for 3 days.
After the completion of the culture, the culture solution was centrifuged (4° C., 4,000 rpm, […]) and frozen at −80° C. to obtain hSCD1-expressing insect cells. Next, the frozen hSCD1-expressing insect cells were suspended in buffer A (50 mM Tris-HCl (pH 7.5) containing 250 mM sucrose and cOmplete Protease Inhibitor Cocktail Tablets (F. Hoffmann-La Roche, Ltd.)), and the cells were disrupted (4° C., 20,000 rpm, 20 sec×2) using a POLYTORON homogenizer (Central Scientific Commerce, Inc.).
This cell lysate was centrifuged (4° C., 850×g, […]), and the supernatant was further ultracentrifuged (4° C., 186,000×g, 60 min). The supernatant was discarded, and buffer A was added to the precipitate. The resultant was suspended using POLYTRON (4° C., 10,000 rpm, 10 sec×2) and passed through a 40-μm cell strainer to prepare a human SCD1-expressing membrane fraction (hereinafter, also simply referred to as human SCD1). The protein concentration was measured using BCA Protein Assay Kit (Thermo Fisher Scientific, Inc.) with BSA used as standards.
The obtained primary dilution was diluted 250-fold by the addition of an assay buffer (10 mM Tris-HCl, pH 7.5, 100 mM KCl, 10 mM NaF, 3 mM MgCl2, 0.005% Tween 20, 1 mM GSH) to obtain a secondary dilution. The human SCD1 diluted using an assay buffer was dispensed at 100 μL/well (containing 0.2 μg of the protein) to a polypropylene 96-well plate, and then, the secondary dilution of the compound was added thereto at 50 μL/well. Further, a solution of 12 nM compound Z diluted with an assay buffer was added thereto at 50 μL/well, and the plate was left standing at room temperature for 2 hours. Then, the contents in each well were transferred to each well of UniFilter-96 GF/C PEI coated plate (PerkinElmer, Inc.) wetted with a washing buffer, followed by washing five times with a washing buffer (10 mM Tris-HCl, pH 7.5). After drying of the filter plate, Microscint-O (PerkinElmer, Inc.) was added thereto at 25 μL/well, and the obtained radioactivity was measured using TopCount (PerkinElmer, Inc.). […]

inhibition at 1 µM [2] [%] | inhibition at 0.1 µM ([2]; 0.1 μM compound, read-out: Rate of inhibition of SCD1 binding at compound concentration of 0.1 μM) [%] | SMILES | inhibition at 1 µM [1] [%]
98 | – | COC1(c2ccc(S(F)(F)(F)(F)F)cc2)CCN(c2ccc(-c3nnc(CO)o3)nn2)CC1 [Example 93, (5-(6-(4-Methoxy-4-(4-(pentafluorosulfanyl)phenyl)piperidin-1-yl)pyridazin-3-yl)-1,3,4-oxadiazol-2-yl)methanol] | 85
– | 93 | COC1(c2ccc(S(F)(F)(F)(F)F)cc2)CCN(c2ccc(-c3nnc(CO)s3)nn2)CC1 [Example 111, (5-(6-(4-Methoxy-4-(4-(pentafluorosulfanyl)phenyl)piperidin-1-yl)pyridazin-3-yl)-1,3,4-thiadiazol-2-yl)methanol] | 86
87 | – | N#CC1(c2ccc(S(F)(F)(F)(F)F)cc2)CCN(c2ccc(-c3nnc(CO)s3)nn2)CC1 [Example 109, 1-(6-(5-(Hydroxymethyl)-1,3,4-thiadiazol-2-yl)pyridazin-3-yl)-4-(4-(pentafluorosulfanyl)phenyl)piperidine-4-carbonitrile] | 88
100 | – | COC1(c2ccc(S(F)(F)(F)(F)F)cc2)CCN(c2ccc(-c3nc(CO)ns3)nn2)CC1 [Example 110, (5-(6-(4-Methoxy-4-(4-(pentafluorosulfanyl)phenyl)piperidin-1-yl)pyridazin-3-yl)-1,2,4-thiadiazol-3-yl)methanol] | 89
99 | – | OCc1nsc(-c2ccc(N3CCC(c4ccc(C(F)(F)F)cc4)(C(F)(F)F)CC3)nn2)n1 [Example 112, (5-(6-(4-(Trifluoromethyl)-4-(4-(trifluoromethyl)phenyl)piperidin-1-yl)pyridazin-3-yl)-1,2,4-thiadiazol-3-yl)methanol] | 90
100 | – | OCc1nnc(-c2ccc(N3CCC(c4ccc(C(F)(F)F)cc4)(C(F)(F)F)CC3)nn2)s1 [Example 113, (5-(6-(4-(Trifluoromethyl)-4-(4-(trifluoromethyl)phenyl)piperidin-1-yl)pyridazin-3-yl)-1,3,4-thiadiazol-2-yl)methanol] | 84
89 | – | N#CC1(c2ccc(S(F)(F)(F)(F)F)cc2)CCN(c2ccc(-c3nnc(CO)o3)nn2)CC1 [Example 58, 1-(6-(5-(Hydroxymethyl)-1,3,4-oxadiazol-2-yl)pyridazin-3-yl)-4-(4-(pentafluorosulfanyl)phenyl)piperidine-4-carbonitrile] | 88
99 | – | OCc1noc(-c2ccc(N3CCC(c4ccc(C(F)(F)F)cc4)(C(F)(F)F)CC3)nn2)n1 [Example 82, (5-(6-(4-(Trifluoromethyl)-4-(4-(trifluoromethyl)phenyl)piperidin-1-yl)pyridazin-3-yl)-1,2,4-oxadiazol-3-yl)methanol] | 89
99 | – | OCc1nnc(-c2ccc(N3CCC(c4ccc(C(F)(F)F)cc4)(C(F)(F)F)CC3)nn2)o1 [Example 84, (5-(6-(4-(Trifluoromethyl)-4-(4-(trifluoromethyl)phenyl)piperidin-1-yl)pyridazin-3-yl)-1,3,4-oxadiazol-2-yl)methanol] | 88
99 | – | N#CC1(c2ccc(S(F)(F)(F)(F)F)cc2)CCN(c2ccc(-c3nc(CO)ns3)nn2)CC1 [Example 108, 1-(6-(3-(Hydroxymethyl)-1,2,4-thiadiazol-5-yl)pyridazin-3-yl)-4-(4-(pentafluorosulfanyl)phenyl)piperidine-4-carbonitrile] | 90
